Measurements from paper PMC11487760, “Cross-Species Applications of Peptide Substrate Reporters to Quantitative Measurements of Kinase Activity” (ACS Measurement Science Au, 2024).
Non-standard residues stand in square brackets, D forms with d. Residues, ends and D or L forms follow the SMILES beside them. *: point of attachment. 5FAM = O=C1OC2(c3ccc(O)cc3Oc3cc(O)ccc32)c2ccc(C(=O)*)cc21; 6FAM = O=C1OC2(c3ccc(O)cc3Oc3cc(O)ccc32)c2cc(C(=O)*)ccc21; NMeR = CN[C@@H](CCCNC(=N)N)C(=O)O; NMeA = CN[C@@H](C)C(=O)O

How the values were obtained:
[1] = Degradation assay in freeze-thaw lysates, D. discoideum; format: in vitro ADME; settings: 10 μM reporter, 25 °C, CE-LIF
Method: (§1) Degradation assays were conducted as described previously.[38] Briefly, aliquots of vegetative cells were washed twice, resuspended in ice-cold phosphate buffered saline at a density of 2 × 10^8 cells/mL and lysed by three freeze–thaw cycles using liquid nitrogen. The resulting lysate was clarified by 5 min centrifugation at 15,000 × g, and the supernatant was stored at −80 °C. The total protein concentration was determined using a fluorescamine assay with a bovine serum albumin (BSA) calibration curve.[39] Briefly, three parts diluted lysate (or BSA standard) in 30 mM borate buffer (pH 9) and one part 3 mg/mL fluorescamine in acetone were incubated for 5 min in the dark at room temperature. The fluorescence at 475 nm was then measured using 390 nm excitation. Based on this assay, the lysate was diluted to a concentration of 3 mg/mL in phosphate buffered saline. The degradation reaction was run at 25 °C and initiated by addition of 10 μM reporter to the diluted lysate. At fixed time points, aliquots were removed, and the reaction was stopped by incubation for 4 min at 95 °C.
(§2) To study degradation kinetics, we fit the data for each full-length peptide to a first-order reaction model and determined the half-life for each peptide for three biological replicates (Figure 5b-d, Table 3). Degradation rates and half-lives varied widely between organisms and peptides; however, some general trends were apparent. For all peptides, degradation was much faster in T. thermophila than in D. discoideum. T. thermophila is known to produce and secrete cysteine proteases and is a large ([…]), fast-growing cell. […] Further characterization of protease expression in these strains may be helpful identifying the enzyme(s) primarily responsible for degradation of these reporters.

[2] = Degradation assay in freeze-thaw lysates, T. thermophila B2086.2; format: in vitro ADME; settings: freeze–thaw lysate of vegetative T. thermophila B2086.2 cells, 3 mg/mL total protein in PBS, no protease inhibitors, 10 μM reporter, 25 °C, CE-LIF, first-order fit, ± SD, 3 biological replicates
Method: as §1, §2

[3] = system: PKBA; settings: read-out: EC50 for PKBA in D. discoideum; cited from earlier work
Method: (§3) Next, we tested pharmacological treatment of D. discoideum. We treated cells for 1 min with 15 μM LY294002, a PI3K inhibitor. LY294002 has been shown previously to reduce PKBA activity in D. discoideum.[53],[55]−[57] […] The magnitude of this effect was quite similar for all three peptides; percent phosphorylation of cAMP-stimulated cells decreased to 33–34% of the untreated phosphorylation levels upon LY294002 treatment.

[4] = system: PKBA; assay: Effect of LY294002 treatment on reporter phosphorylation in cAMP-stimulated D. discoideum; format: cell-based; settings: 15 μM LY294002 for 1 min before cAMP stimulation; lysed 15 s after stimulation; 1 h social development; all three reporters; n = 3 biological replicates
Method: as §3

[5] = Degradation assay in freeze-thaw lysates, T. thermophila CU428.2; format: in vitro ADME; settings: T. thermophila strain CU428.2 freeze–thaw lysate, based on the first 5 min of each reaction; 3 mg/mL protein, 10 μM reporter, 25 °C, CE-LIF
Method: as §1
To study degradation kinetics, we fit the data for each full-length peptide to a first-order reaction model and determined the half-life for each peptide for three biological replicates (Figure 5b-d, Table 3). […]

[6] = system: pancreatic cancer cell lines; settings: intact pancreatic cancer cell lines; cited from earlier work
Method: (§4) These rates are much higher than rates obtained in intact human prostate cancer cells (LNCaP, 0.04 zmol pg^–1 s^–1)[6] and pancreatic cancer cell lines (0.02–0.1 zmol pg^–1 s^–1)[28],[50] with the same reporter. Our assays were conducted in lysates containing phosphatase inhibitors, which will increase the apparent activity of PKB by removing the effects of any opposing phosphatases. Additionally, higher phosphorylation rates may arise from differing expression levels of PKB ...

[7] = system: intact human prostate cancer cells (LNCaP); settings: cited from earlier work
Method: as §4

[8] = system: PHK5; assay: Phosphorylation of peptide substrate reporters in T. thermophila lysates (CE-LIF); format: biochemical; settings: lysates from T. thermophila 2 h into conjugation, 20–30 s after 2% proteose peptone; 5 μM reporter, 2 mM ATP, room temperature, lysis buffer with phosphatase and protease inhibitors; reactions with ≤10% total phosphorylation; MEKC CE-LIF
Method: (§5) For T. thermophila lysates, mating was induced by mixing equal cell numbers of B2086.2 and CU428.2 strains that had been starved for 16 h at 30 °C in unshaken Dryl’s buffer (2 mM phosphate buffer, 2 mM citrate, 1.5 mM CaCl2). Two hours after cells were mixed, microscopy was used to confirm that >75% of cells were paired. Samples were then lysed with an equal volume of ice-cold 2× lysis buffer, before and 30 s after addition of 20% proteose peptone stock to a final concentration of 2% or other stimuli as noted.
(§6) In addition to confirming that all three reporters were phosphorylated in lysates from both cell types, we also characterized the kinetics of the phosphorylation, which varied substantially between organisms. Using reactions with ≤10% total phosphorylation, we determined the phosphorylation rate for lysates from stimulated cells in units of zeptomoles of phosphorylated product per picogram of total protein per second (zmol pg^–1 s^–1; Table 2). […] For D. discoideum, B-5/I was the next most preferred substrate. This kinetic trend is similar to that observed in human cells. Crosstide and a truncated version of B-5/I have similar values for Vmax with human Akt1, but the KM value is about 5-fold lower for Crosstide.[25] The value of Vmax has not been determined for VI–B with Akt1, but its phosphorylation rate is known to be slower than that of B-5/I.[13]

[9] = system: PKBA; assay: Phosphorylation of peptide substrate reporters in D. discoideum lysates (CE-LIF); format: biochemical; settings: lysates from chemotaxis-competent D. discoideum 20–30 s after 1 μM cAMP stimulation; 5 μM reporter, 2 mM ATP, 0.4–0.6 mg/mL protein, room temperature, lysis buffer with phosphatase and protease inhibitors; reactions with ≤10% total phosphorylation; MEKC CE-LIF
Source text: as §6

[10] = system: PHK5; format: cell-based; settings: mating T. thermophila treated 20 s with 1 μM stimulus (2% for proteose peptone) prior to lysis; 15 min incubation of Crosstide in lysate; n = 2–3 biological replicates
Method: as §5, with “Two hours after cells were mixed, microscopy was used to confirm that >75% of cells were paired.” left out
The protein concentrations of lysates were determined using the fluorescamine assay described above, and lysates were diluted to the same final concentration (0.4–0.6 mg/mL) in 1× lysis buffer. […] Phosphorylation reactions were conducted in kinase buffer (25 mM MOPS, pH 7.4, 20 mM magnesium chloride, 25 mM glycerophosphate, 1 mM DTT).[41] The peptide substrate reporter was added to a final concentration of 5 μM, and the reaction was started by addition of a final concentration of 2 mM ATP. The reaction was run at room temperature and stopped by the addition of CE run buffer. Negative control experiments were performed by substituting deionized water for ATP or denaturing the lysate with heat before the addition of peptide.
Samples were analyzed using micellar electrokinetic chromatography (MEKC) in a PA-800 Plus capillary electrophoresis instrument (Beckman Coulter). […] The same buffer was used for phosphorylation assays of Crosstide. […] For all VI–B assays, the run buffer was 100 mM borate, 15 mM SDS, pH 11.4. The capillary was 50 μm diameter bare silica, 21 cm effective length with an applied potential of 400 V/cm. […] Peak integration was performed using 32 Karat (v. 10.1) software.
Cells were treated with a final concentration of 1 μM stimulus for 20 s prior to lysis.

[11] = freeze–thaw lysate of vegetative D. discoideum cells, 3 mg/mL total protein in PBS, no protease inhibitors, first-order fit, ± SD, 3 biological replicates

Q: For `C[C@H](NC(=O)[C@H](C)NC(=O)[C@H](CCCNC(=N)N)NC(=O)[C@@H]1CCCN1C(=O)[C@H](CCCNC(=N)N)NC(=O)CNC(=O)c1ccc2c(c1)C1(OC2=O)c2ccc(O)cc2Oc2cc(O)ccc21)C(=O)N[C@H](C(=O)N[C@@H](Cc1ccccc1)C(=O)N[C@@H](C)C(=O)N[C@@H](CCC(=O)O)C(=O)NCC(N)=O)[C@@H](C)O` [B-5/I] (6FAM-GRPRAATFAEG-NH2), which half-life at 10 μM [1, 11] is on record?
A: 51 ± 4 min

Q: And the half-life at 10 μM [2]?
A: 12 ± 4 min

Q: Which half-life at 10 μM [1, 11] does the source give for `C[C@H](NC(=O)[C@H](Cc1ccccc1)NC(=O)[C@H](CO)NC(=O)[C@H](CO)NC(=O)[C@@H](NC(=O)[C@H](CCCNC(=N)N)NC(=O)[C@@H]1CCCN1C(=O)[C@H](CCCNC(=N)N)NC(=O)CNC(=O)c1ccc2c(c1)C(=O)OC21c2ccc(O)cc2Oc2cc(O)ccc21)[C@@H](C)O)C(=O)N[C@@H](CCC(=O)O)C(=O)NCC(=O)O` [Crosstide] (5FAM-GRPRTSSFAEG-OH) here?
A: 117 ± 10 min

Q: And the half-life at 10 μM [2]?
A: 8 ± 1 min

Q: What does the source list for `O=c1cc(N2CCOCC2)oc2c(-c3ccccc3)cccc12` [LY294002]?
A: EC50 [3]: 15 µM; percent phosphorylation of cAMP-stimulated cells, as % of the untreated phosphorylation levels [4]: 33–34%

Q: With `C[C@H](NC(=O)[C@H](CCCNC(=N)N)N(C)C(=O)[C@@H]1CCCN1C(=O)[C@H](CCCNC(=N)N)NC(=O)CNC(=O)c1ccc2c(c1)C1(OC2=O)c2ccc(O)cc2Oc2cc(O)ccc21)C(=O)N[C@@H](Cc1ccccc1)C(=O)N[C@H](C(=O)N[C@@H](Cc1ccccc1)C(=O)N(C)[C@@H](C)C(N)=O)[C@@H](C)O` [VI–B] (6FAM-GRP[NMeR]AFTF[NMeA]-NH2) as the compound, how does the “initial rate of fragmentation in lysates” value ([1]; D. discoideum freeze–thaw lysate, based on the first 15 min of each reaction, pmol peptide per mg total protein per second, 3 mg/mL protein) read?
A: 0.3 ± 0.1 pmol mg^–1 s^–1

Q: What about the half-life ([1]; cells or culture medium, freeze–thaw lysate of vegetative D. discoideum cells, 3 mg/mL total protein in PBS, no protease inhibitors, first-order fit, ± SD, 3 biological replicates) of the same compound?
A: 184 ± 65 min

Q: And the half-life ([2]; cells or culture medium)?
A: 22 ± 4 min

Q: And the “initial degradation rate in lysates” value [5]?
A: 5.1 ± 0.3 pmol mg^–1 s^–1

Q: And the phosphorylation rate [6]?
A: 0.02–0.1 zmol pg^–1 s^–1

Q: What about the phosphorylation rate [7] of the same compound?
A: 0.04 zmol pg^–1 s^–1

Q: And the phosphorylation rate [8]?
A: 4.1 ± 0.9 zmol pg^–1 s^–1

Q: What about the phosphorylation rate [9] of the same compound?
A: 1.4 ± 0.2 zmol pg^–1 s^–1

Q: For `Nc1nc2c(ncn2[C@@H]2O[C@@H]3COP(=O)(O)O[C@H]3[C@H]2O)c(=O)[nH]1` [cGMP], which “change in phosphorylation activity toward Crosstide after stimulus” value (shortened to “change”) [10] is on record?
A: None of these stimuli resulted in increased phosphorylation activity

Q: Which “change” value [10] does the source give for `NCCc1c[nH]cn1` [histamine] here?
A: None of these stimuli resulted in increased phosphorylation activity

Q: For `NCCc1c[nH]c2ccc(O)cc12` [serotonin], which “change” value [10] is on record?
A: None of these stimuli resulted in increased phosphorylation activity

Q: For concavalin A, which “change” value [10] is on record?
A: None of these stimuli resulted in increased phosphorylation activity

Q: For insulin, which “change” value [10] is on record?
A: None of these stimuli resulted in increased phosphorylation activity
